Results as given in ChEMBL document CHEMBL1201862, “PubChem BioAssay data set” (2004).
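Briefly, cells in 96-well plates were exposed to five compound concentrations for 48 h, and endpoints were estimated by linear interpolation. GI50 = concentration required for 50% inhibition of growth.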 Activity calls are given as the source filed them. Cut-off read from the data, not from the text of the source: active = GI50 up to about 1.1 µM and inactive = higher.

Experiments:
Experiment in all cases: NCI tumour cell line growth inhibition, 48 h
786-0 = system: 786-0
A498 = system: A498
CCRF-CEM = system: CCRF-CEM
COLO 205 = system: COLO 205
HCC 2998 = system: HCC 2998
HCT-116 = system: HCT-116
HOP-62 = system: HOP-62
HT-29 = system: HT-29
IGROV-1 = system: IGROV-1
NCI/ADR-RES = system: NCI/ADR-RES
OVCAR-3 = system: OVCAR-3
OVCAR-8 = system: OVCAR-8
SF-539 = system: SF-539
SK-MEL-28 = system: SK-MEL-28
SK-MEL-5 = system: SK-MEL-5
SNB-75 = system: SNB-75
U-251 = system: U-251
UACC-257 = system: UACC-257
UO-31 = system: UO-31
MDA-N = system: MDA-N

Structure (SMILES)	GI50 (786-0)	GI50 (A498)	GI50 (CCRF-CEM)	GI50 (COLO 205)	GI50 (HCC 2998)	GI50 (HCT-116)	GI50 (HOP-62)	GI50 (HT-29)	GI50 (IGROV-1)	GI50 (NCI/ADR-RES)	GI50 (OVCAR-3)	GI50 (OVCAR-8)	GI50 (SF-539)	GI50 (SK-MEL-28)	GI50 (SK-MEL-5)	GI50 (SNB-75)	GI50 (U-251)	GI50 (UACC-257)	GI50 (UO-31)	GI50 (MDA-N)
CC12CP(=O)(O)CC1C2(Cl)Cl (stereo unspecified)	> 100 µM (inactive)	> 100 µM (inactive)	> 100 µM (inactive)	> 100 µM (inactive)	> 100 µM (inactive)	> 100 µM (inactive)	> 100 µM (inactive)	> 100 µM (inactive)	> 100 µM (inactive)	> 100 µM (inactive)	> 100 µM (inactive)	> 100 µM (inactive)	> 100 µM (inactive)	> 100 µM (inactive)	> 100 µM (inactive)	> 100 µM (inactive)	> 100 µM (inactive)	> 100 µM (inactive)	50.6 µM (inactive)	
Cc1cc2c(cc1Cl)SC(NNC(=O)c1ccccc1)=NS2(=O)=O	> 10 µM (inactive)	> 10 µM (inactive)	> 10 µM (inactive)	> 10 µM (inactive)	> 10 µM (inactive)	> 10 µM (inactive)	> 10 µM (inactive)	> 10 µM (inactive)	> 10 µM (inactive)	> 10 µM (inactive)	> 10 µM (inactive)	> 10 µM (inactive)	> 10 µM (inactive)	> 10 µM (inactive)	> 10 µM (inactive)	> 10 µM (inactive)	> 10 µM (inactive)	> 10 µM (inactive)		
NC1CC(=O)c2sccc21 (stereo unspecified)	> 100 µM (inactive)	> 100 µM (inactive)	> 100 µM (inactive)	> 100 µM (inactive)	> 100 µM (inactive)	> 100 µM (inactive)	> 100 µM (inactive)	> 100 µM (inactive)	> 100 µM (inactive)	> 100 µM (inactive)	> 100 µM (inactive)	> 100 µM (inactive)	> 100 µM (inactive)	> 100 µM (inactive)	> 100 µM (inactive)	> 100 µM (inactive)	> 100 µM (inactive)	> 100 µM (inactive)	> 100 µM (inactive)	
CN(C)C(=O)C(F)(F)C(c1ccccc1)C1C(=O)N(C)C(=O)N(C)C1=O (stereo unspecified)	> 100 µM (inactive)	> 100 µM (inactive)	> 100 µM (inactive)	> 100 µM (inactive)	> 100 µM (inactive)	> 100 µM (inactive)	> 100 µM (inactive)			> 100 µM (inactive)	> 100 µM (inactive)	> 100 µM (inactive)		> 100 µM (inactive)	> 100 µM (inactive)	> 100 µM (inactive)	> 100 µM (inactive)	> 100 µM (inactive)	> 100 µM (inactive)	
C=CCN(C(=O)CNC(=O)C(F)(F)F)c1cc(OCc2ccccc2)c2c(c1)c(C)cn2S(=O)(=O)c1ccccc1	> 100 µM (inactive)		0.139 µM (active)	8.02 µM (inactive)	> 100 µM (inactive)	7.66 µM (inactive)	> 100 µM (inactive)	> 100 µM (inactive)	12.1 µM (inactive)	> 100 µM (inactive)	> 49.5 µM (inactive)	> 26.8 µM (inactive)	> 100 µM (inactive)	> 100 µM (inactive)	24 µM (inactive)	4.8 µM (inactive)	> 67.9 µM (inactive)	> 27.5 µM (inactive)	2.9 µM (inactive)	
O=C1NC(=O)C2(CCC(O)C2)c2cc[n+]([O-])cc21 (stereo unspecified)	> 100 µM (inactive)	> 100 µM (inactive)	> 100 µM (inactive)	> 100 µM (inactive)	> 100 µM (inactive)	> 100 µM (inactive)	> 100 µM (inactive)	> 100 µM (inactive)	> 100 µM (inactive)		> 100 µM (inactive)	> 100 µM (inactive)	> 100 µM (inactive)	> 100 µM (inactive)		60.1 µM (inactive)	> 100 µM (inactive)	> 100 µM (inactive)	> 100 µM (inactive)	> 100 µM (inactive)
O=C1C(Cl)=C(Cl)C(=O)C(CCNc2nccs2)=C1Cl	23.3 µM (inactive)		0.335 µM (active)	32.8 µM (inactive)	> 100 µM (inactive)	28.2 µM (inactive)	> 100 µM (inactive)	35.2 µM (inactive)	14.8 µM (inactive)	25.5 µM (inactive)	25.8 µM (inactive)	29.5 µM (inactive)	33.7 µM (inactive)	39 µM (inactive)	19.5 µM (inactive)	23.3 µM (inactive)	36.3 µM (inactive)	21.1 µM (inactive)	21.2 µM (inactive)	
